{"source": "ChEMBL document CHEMBL4732079", "about": "“Design, synthesis and antitumor evaluation of new 1,8-naphthalimide derivatives targeting nuclear DNA” (Eur J Med Chem, 2021)", "key": {"MGC-803 [1]": {"test_system": "MGC-803", "experiment": "Induction of cell cycle arrest in human MGC-803 cells assessed as accumulation of cells at G1 phase at 0.25 uM for 24 hrs (reference value: 62.6%)", "assay_type": "functional"}, "SMMC-7721": {"test_system": "SMMC-7721", "experiment": "Antiproliferative activity against human SMMC-7721 cells by MTT assay", "assay_type": "functional, cell-based"}, "T-24": {"test_system": "T-24", "experiment": "Antiproliferative activity against human T-24 cells by MTT assay", "assay_type": "functional, cell-based"}, "MGC-803 [2]": {"test_system": "MGC-803", "experiment": "Antitumor activity against human MGC-803 cells xenografted in BALB/c nude mice assessed as tumor increment rate at 5 mg/kg, ip measured after 21 days relative to control", "assay_type": "functional", "conditions": "time 21 day"}, "MGC-803 [3]": {"test_system": "MGC-803", "experiment": "Antitumor activity against human MGC-803 cells xenografted in BALB/c nude mice assessed as tumor inhibitory rate at 15 mg/kg, ip measured after 21 days relative to control", "assay_type": "functional", "conditions": "Mus musculus, MGC-803, ip, 504 h, time 21 day"}, "[4]": {"experiment": "Toxicity in BALB/c nude mouse xenografted with human MGC-803 cells assessed effect on body weight at 5 to 15 mg/kg, ip measured after 21 days", "assay_type": "organism-based", "conditions": "in vivo, 504 h, dose 5-15 mg/kg, time 21 day"}, "DNA": {"test_system": "DNA", "experiment": "Induction of DNA damage in human MGC-803 cells assessed as increase in p-CHK2 levels at 0.5 to 1 uM by Western blot analysis", "assay_type": "cell-based", "conditions": "dose 0.5-1 µM"}, "[5]": {"molecular_target": "T1, DNA topoisomerase 1 (Homo sapiens) (UniProt P11387)", "T1 sequence (whole entry)": "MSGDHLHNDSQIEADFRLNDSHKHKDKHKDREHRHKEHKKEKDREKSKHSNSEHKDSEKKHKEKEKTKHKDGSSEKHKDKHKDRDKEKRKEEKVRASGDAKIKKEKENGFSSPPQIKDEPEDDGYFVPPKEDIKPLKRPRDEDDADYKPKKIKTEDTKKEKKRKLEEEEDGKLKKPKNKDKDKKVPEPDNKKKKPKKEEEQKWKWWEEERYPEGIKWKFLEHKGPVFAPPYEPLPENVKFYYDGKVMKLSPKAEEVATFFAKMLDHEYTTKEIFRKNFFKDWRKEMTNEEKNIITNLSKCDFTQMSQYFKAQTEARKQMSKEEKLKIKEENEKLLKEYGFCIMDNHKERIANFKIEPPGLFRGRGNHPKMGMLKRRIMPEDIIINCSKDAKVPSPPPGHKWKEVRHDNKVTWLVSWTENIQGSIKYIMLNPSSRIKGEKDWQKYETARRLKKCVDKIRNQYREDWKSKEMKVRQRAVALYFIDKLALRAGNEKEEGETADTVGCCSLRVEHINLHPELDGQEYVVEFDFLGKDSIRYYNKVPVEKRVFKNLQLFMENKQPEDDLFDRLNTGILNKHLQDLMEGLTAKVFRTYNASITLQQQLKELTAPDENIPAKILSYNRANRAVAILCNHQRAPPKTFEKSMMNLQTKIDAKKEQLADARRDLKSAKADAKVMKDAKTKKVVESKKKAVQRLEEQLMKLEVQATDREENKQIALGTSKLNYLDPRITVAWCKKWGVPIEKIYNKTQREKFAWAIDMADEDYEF", "experiment": "Inhibition of topoisomerase 1 (unknown origin) using pBR322 DNA as substrate at 20 uM by gel electrophoresis"}, "MGC-803 [6]": {"test_system": "MGC-803", "experiment": "Induction of cell cycle arrest in human MGC-803 cells assessed as accumulation of cells at S phase at 1 uM for 24 hrs (Rvb =20.23%)", "assay_type": "functional"}, "MGC-803 [7]": {"test_system": "MGC-803", "experiment": "Induction of apoptosis in human MGC-803 cells assessed as viable cells at 0.5 uM after 24 hrs (reference value: 93.6%)", "assay_type": "functional", "conditions": "read-out: Activity"}, "MGC-803 [8]": {"test_system": "MGC-803", "experiment": "Induction of apoptosis in human MGC-803 cells assessed as necrotic cells at 0.5 uM after 24 hrs (reference value: 0.9%)", "assay_type": "functional"}, "MGC-803 [9]": {"test_system": "MGC-803", "experiment": "Induction of apoptosis in human MGC-803 cells assessed as necrotic cells at 1 uM after 24 hrs (reference value: 0.9%)", "assay_type": "functional"}, "MGC-803 [10]": {"test_system": "MGC-803", "experiment": "Induction of apoptosis in human MGC-803 cells assessed as increase in Bax expression at 0.5 to 1 uM by Western blot analysis", "assay_type": "functional, cell-based", "conditions": "dose 0.5-1 µM"}, "MGC-803 [11]": {"test_system": "MGC-803", "experiment": "Induction of apoptosis in human MGC-803 cells assessed as increase in caspase-9 expression at 0.5 to 1 uM by Western blot analysis", "assay_type": "functional, cell-based", "conditions": "dose 0.5-1 µM"}, "MGC-803 [12]": {"test_system": "MGC-803", "experiment": "Induction of apoptosis in human MGC-803 cells assessed as decrease in Bcl2 expression at 0.5 to 1 uM by Western blot analysis", "assay_type": "functional, cell-based", "conditions": "dose 0.5-1 µM"}, "[13]": {"molecular_target": "T1, DNA topoisomerase 1 (Homo sapiens)", "experiment": "Inhibition of topoisomerase 1 (unknown origin) using pBR322 DNA as substrate at 10 uM by gel electrophoresis"}}, "note": "Active and inactive are the calls of the source. The calls are words filed in the database; no cut-off is given here."}
{"smiles": "Cc1ccc(S(=O)(=O)N2CCN(c3c([N+](=O)[O-])cc4c5c(cccc35)C(=O)N(CCN(C)C)C4=O)CC2)cc1", "values": [{"measurement": "Activity", "setting": "MGC-803 [1]", "result": 53.73, "unit": "%"}, {"measurement": "IC50", "setting": "SMMC-7721", "result": 2710, "unit": "nM"}, {"measurement": "IC50", "setting": "T-24", "result": 330, "unit": "nM"}, {"measurement": "T/C", "setting": "MGC-803 [2]", "result": 52, "unit": "%"}, {"measurement": "inhibition in vivo at 15 mg/kg", "setting": "MGC-803 [3]", "result": 61.7, "unit": "%"}, {"measurement": "Activity", "setting": "[4]", "result": "Non-Toxic"}, {"measurement": "Activity", "setting": "DNA", "result": "Active"}, {"measurement": "inhibition", "setting": "[5]", "result": "Active"}, {"measurement": "Activity", "setting": "MGC-803 [6]", "result": 75.18, "unit": "%"}, {"measurement": "viability at 0.5 µM", "setting": "MGC-803 [7]", "result": 78.5, "unit": "%"}, {"measurement": "Activity", "setting": "MGC-803 [8]", "result": 4.2, "unit": "%"}, {"measurement": "Activity", "setting": "MGC-803 [9]", "result": 4.2, "unit": "%"}, {"measurement": "Activity", "setting": "MGC-803 [10]", "result": "Active"}, {"measurement": "Activity", "setting": "MGC-803 [11]", "result": "Active"}, {"measurement": "Activity", "setting": "MGC-803 [12]", "result": "Active"}]}
{"smiles": "CN(C)CCN1C(=O)c2cccc3c(N4CCN(C(=O)c5ccccc5)CC4)c([N+](=O)[O-])cc(c23)C1=O", "values": [{"measurement": "Activity", "setting": "MGC-803 [1]", "result": 50.91, "unit": "%"}, {"measurement": "IC50", "setting": "SMMC-7721", "result": 1570, "unit": "nM"}, {"measurement": "IC50", "setting": "T-24", "result": 420, "unit": "nM"}, {"measurement": "T/C", "setting": "MGC-803 [2]", "result": 59.8, "unit": "%"}, {"measurement": "inhibition in vivo at 15 mg/kg", "setting": "MGC-803 [3]", "result": 52.8, "unit": "%"}, {"measurement": "Activity", "setting": "[4]", "result": "Non-Toxic"}, {"measurement": "Activity", "setting": "DNA", "result": "Active"}, {"measurement": "inhibition", "setting": "[13]", "result": "Active"}, {"measurement": "Activity", "setting": "MGC-803 [6]", "result": 71.16, "unit": "%"}, {"measurement": "viability at 0.5 µM", "setting": "MGC-803 [7]", "result": 74.9, "unit": "%"}, {"measurement": "Activity", "setting": "MGC-803 [8]", "result": 3.4, "unit": "%"}, {"measurement": "Activity", "setting": "MGC-803 [9]", "result": 4.7, "unit": "%"}, {"measurement": "Activity", "setting": "MGC-803 [10]", "result": "Active"}, {"measurement": "Activity", "setting": "MGC-803 [11]", "result": "Active"}, {"measurement": "Activity", "setting": "MGC-803 [12]", "result": "Active"}]}
